# Source: patent publication US10214492B2, “Heterocyclic inhibitors of MCT4” (Vettore, LLC, priority 2016, dated 2019)
# Columns and labels:
# [1] = target: MCT4 (Homo sapiens (Human), UniProt O15427); test: Assay 3: MCT4-mediated lactate transport in MDA-MB-231 breast cancer cells; assay type: cell-based; conditions: MDA-MB-231 cells; lactate transport
# Method: (§1) 10 μL of a 30 mM DMSO stock of BCECF-AM ester (Life Technologies) is added and the cells are incubated at 37° C. for 5 min. The cells are pelleted (300 g, 5 min), washed once with 1 mL Tyrode's Solution, pH 7.4, re-pelleted (300 g, 5 min), and resuspended in 1 mL Tyrode's Solution, pH 7.4.
# MCT4 activity may be assessed by monitoring the intracellular pH change that accompanies lactate/proton symport, using the pH-sensitive fluorescent dye 2′,7′-bis-(carboxyethyl)-5(6)-carboxyfluorescein (BCECF), in a manner similar to that previously reported for MCT1 and MCT4. The following is an exemplary procedure for assaying MCT4 activity of the compounds of Formula (I).
# [2] = target: MCT1 (Homo sapiens (Human), UniProt P53985); test: Assay 4: MCT1-mediated lactate transport in BT20 breast cancer cells; assay type: cell-based; conditions: Table 27
# Method: as §1
# Assay 4: MCT1-Mediated Lactate Transport in BT20 Breast Cancer Cells.
# Preparation of BCECF loaded cells are as described for Assay 1. Lactate transport assay is as described for Assay 1, except 10 mM L-lactate (rather than 50 mM) is added.
# Sequence of MCT4 (O15427 whole entry, looked up): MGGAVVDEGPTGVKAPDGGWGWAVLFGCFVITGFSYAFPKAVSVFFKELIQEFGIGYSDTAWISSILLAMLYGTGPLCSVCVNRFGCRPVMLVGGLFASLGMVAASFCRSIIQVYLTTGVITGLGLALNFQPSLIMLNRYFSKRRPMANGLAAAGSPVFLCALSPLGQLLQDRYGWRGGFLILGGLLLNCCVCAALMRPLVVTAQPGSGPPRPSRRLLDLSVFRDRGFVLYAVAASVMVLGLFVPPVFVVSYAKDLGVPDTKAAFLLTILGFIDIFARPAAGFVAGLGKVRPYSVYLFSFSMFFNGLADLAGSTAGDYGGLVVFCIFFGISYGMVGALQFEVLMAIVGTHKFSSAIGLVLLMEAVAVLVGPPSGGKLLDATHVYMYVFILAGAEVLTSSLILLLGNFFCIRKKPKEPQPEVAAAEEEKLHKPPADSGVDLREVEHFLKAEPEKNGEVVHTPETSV
# Sequence of MCT4 (P35613 whole entry partner, looked up): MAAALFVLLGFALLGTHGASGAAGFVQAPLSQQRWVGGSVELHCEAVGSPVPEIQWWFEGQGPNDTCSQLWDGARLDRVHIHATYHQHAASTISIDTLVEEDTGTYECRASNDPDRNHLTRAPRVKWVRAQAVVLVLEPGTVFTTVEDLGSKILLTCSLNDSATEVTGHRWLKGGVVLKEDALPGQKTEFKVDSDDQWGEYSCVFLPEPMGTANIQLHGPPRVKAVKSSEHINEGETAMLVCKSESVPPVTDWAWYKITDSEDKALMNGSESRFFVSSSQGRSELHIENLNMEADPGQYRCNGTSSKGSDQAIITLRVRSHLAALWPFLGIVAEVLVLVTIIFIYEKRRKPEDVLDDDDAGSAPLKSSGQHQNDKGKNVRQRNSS
# Sequence of MCT1 (P53985 whole entry): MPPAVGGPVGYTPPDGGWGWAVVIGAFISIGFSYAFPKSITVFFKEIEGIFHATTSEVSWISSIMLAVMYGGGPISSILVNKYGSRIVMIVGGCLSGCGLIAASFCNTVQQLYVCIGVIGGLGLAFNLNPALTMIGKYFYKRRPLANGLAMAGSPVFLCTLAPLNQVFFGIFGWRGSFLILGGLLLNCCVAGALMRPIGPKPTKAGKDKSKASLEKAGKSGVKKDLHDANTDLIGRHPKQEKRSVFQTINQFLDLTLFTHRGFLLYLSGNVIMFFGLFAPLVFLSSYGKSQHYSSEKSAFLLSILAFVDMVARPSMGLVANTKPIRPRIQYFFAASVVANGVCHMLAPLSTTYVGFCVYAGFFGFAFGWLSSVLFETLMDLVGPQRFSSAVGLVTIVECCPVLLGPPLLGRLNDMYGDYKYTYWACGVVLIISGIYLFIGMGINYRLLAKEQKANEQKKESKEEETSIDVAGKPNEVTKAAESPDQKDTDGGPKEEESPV
# Sequence of MCT1 (P35613 140-385 partner): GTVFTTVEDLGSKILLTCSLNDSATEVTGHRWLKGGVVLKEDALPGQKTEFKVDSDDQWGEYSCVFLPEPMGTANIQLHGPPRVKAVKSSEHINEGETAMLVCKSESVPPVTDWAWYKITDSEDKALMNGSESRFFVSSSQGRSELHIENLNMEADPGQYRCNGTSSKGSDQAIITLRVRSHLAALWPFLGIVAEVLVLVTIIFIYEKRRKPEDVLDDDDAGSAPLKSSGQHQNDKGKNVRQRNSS
Structure (SMILES),IC50 [1] [nM],IC50 [2] [nM]
"COc1cccc(-c2cc(COC(C)(C)C(=O)O)nn2CC(C)C)c1 [Example 137, 2-([5-(3-Methoxyphenyl)-1-(2-methylpropyl)-1H-pyrazol-3-yl]methoxy)-2-methylpropanoic acid]",1400,> 100000
"COc1cccc(-c2cc(COC(C)(C)C(=O)O)nn2CC2CCOCC2)c1 [Example 138, 2-([5-(3-Methoxyphenyl)-1-([oxan-4-yl]-methyl)-1H-pyrazol-3-yl]methoxy)-2-methylpropanoic acid]",535,> 100000
"COc1cccc(-c2cc(COC(C)(C)C(=O)O)nn2Cc2ncccc2Cl)c1 [Example 139, 2-([1-[(3-Chloropyridin-2-yl)methyl]-5-(3-methoxyphenyl)-1H-pyrazol-3-yl)methoxy)-2-methylpropanoic acid]",9700,> 100000
"CCOc1ccccc1Cn1nc(COC(C)(C)C(=O)O)cc1-c1cccc(OC)c1 [Example 141, 2-([1-[(2-Ethoxyphenyl)methyl]-5-(3-methoxyphenyl)-1H-pyrazol-3-yl]methoxy)-2-methylpropanoic acid]",6.7,33000
"COc1cccc(-c2cc(COC(C)(C)C(=O)O)nn2Cc2ccccc2OC2CC2)c1 [Example 142, 2-([1-[(2-Cyclopropoxyphenyl)methyl]-5-(3-methoxyphenyl)-1H-pyrazol-3-yl]methoxy)-2-methylpropanoic acid]",6.3,26000
"COc1cccc(-c2cc(/C=C/C(C)(C)C(=O)O)nn2Cc2ccccc2Cl)c1 [Example 143, (3E)-4-[1-[(2-Chlorophenyl)methyl]-5-(3-methoxyphenyl)-1H-pyrazol-3-yl]-2,2-dimethylbut-3-enoic Acid]",195,3300
"COc1cccc(-c2cc(CCC(C)(C)C(=O)O)nn2Cc2ccccc2Cl)c1 [Example 144, 4-[1-[(2-chlorophenyl)methyl]-5-(3-methoxyphenyl)-1H-pyrazol-3-yl]-2,2-dimethylbutanoic Acid]",127,2400
"CCn1ncc2ccc(-c3cc(COC(C)(C)C(=O)O)nn3Cc3ccccc3Cl)cc21 [Example 151, Sodium 2-([1-[(2-chlorophenyl)methyl]-5-(1-ethyl-1H-indazol-6-yl)-1H-pyrazol-3-yl]methoxy)-2-methylpropanoate]",3.6,70000
"CC(C)(OCc1cc(-c2cccc(OC3CC3)c2)n(-c2cccc3cn[nH]c23)n1)C(=O)O [Example 152, 2-([5-(3-Cyclopropoxyphenyl)-1-(1H-indazol-7-yl)-1H-pyrazol-3-yl]methoxy)-2-methylpropanoic Acid]",80,> 100000
"CC(C)(OCc1cc(-c2cccc(OC3CC3)c2)n(-c2cccc3[nH]ncc23)n1)C(=O)O [Example 153, 2-([5-(3-Cyclopropoxyphenyl)-1-(1H-indazol-4-yl)-1H-pyrazol-3-yl]methoxy)-2-methylpropanoic Acid]",830,44000
"Cc1n[nH]c2cccc(-n3nc(COC(C)(C)C(=O)O)cc3-c3cccc(OC4CC4)c3)c12 [Example 154, 2-([5-(3-cyclopropoxyphenyl)-1-(3-methyl-1H-indazol-4-yl)-1H-pyrazol-3-yl]methoxy)-2-methylpropanoic Acid]",240,> 100000
"CC(C)(OCc1cc(-c2ccccn2)n(-c2ccccc2Cl)n1)C(=O)O [Example 156, 2-([1-(2-Chlorophenyl)-5-(pyridin-2-yl)-1H-pyrazol-3-yl]methoxy)-2-methylpropanoic acid]",1400,> 100000
"CC(C)(OCc1cc(-c2cccc(OCC3COC3)c2)n(-c2ccccc2F)n1)C(=O)O [Example 158, 2-([1-(2-Fluorophenyl)-5-[3-(oxetan-3-yl-methoxy)phenyl]-1H-pyrazol-3-yl]-methoxy)-2-methylpropanoic acid]",580,> 100000
"CC(C)(OCc1cc(-c2cccc(OC3CCC3)c2)n(-c2ccccc2F)n1)C(=O)O [Example 159, 2-([5-(3-Cyclobutoxyphenyl)-1-(2-fluoro-phenyl)-1H-pyrazol-3-yl]methoxy)-2-methylpropanoic acid]",11,> 100000
"CC(C)(OCc1cc(-c2cccc(OC3COC3)c2)n(-c2ccccc2F)n1)C(=O)O [Example 160, 2-([1-(2-Fluorophenyl)-5-[3-(oxetan-3-yl-oxy)phenyl]-1H-pyrazol-3-yl]methoxy)-2-methylpropanoic acid]",270,> 100000
"CCOc1cc(OCC)cc(-c2cc(COC(C)(C)C(=O)O)nn2-c2ccccc2C)c1 [Example 162, 2-([5-(3,5-Diethoxyphenyl)-1-(2-methyl-phenyl)-1H-pyrazol-3-yl]methoxy)-2-methylpropanoic acid]",6.4,34000

Structure (SMILES),IC50 [1] [nM],IC50 [2] [nM]
"CCn1ncc2ccc(-c3cc(COC(C)(C)C(=O)O)nn3-c3ccccc3N(C)C)cc21 [Example 163, 2-([1-[2-(dimethylamino)phenyl]-5-(1-ethyl-1H-indazol-6-yl)-1Hpyrazol-3-yl]-methoxy)-2-methylpropanoic acid]",4.4,73000
"CCOc1ccccc1-n1nc(COC(C)(C)C(=O)O)cc1-c1cc(OC)cc(OC)c1 [Example 164, 2-([5-(3,5-Dimethoxyphenyl)-1-(2-ethoxy-phenyl)-1H-pyrazol-3-yl]methoxy)-2-methylpropanoic acid]",43,> 100000
"CCn1ncc2ccc(-c3cc(COC(C)(C)C(=O)O)nn3-c3cccc4cnn(C)c34)cc21 [Example 165, 2-([5-(1-Ethyl-1H-indazol-6-yl)-1-(1-methyl-1H-indazol-7-yl)-1H-pyrazol-3-yl]-methoxy)-2-methylpropanoic acid]",85,99000
"Cn1ncc2cccc(-n3nc(COC(C)(C)C(=O)O)cc3-c3cccc(OCC4CC4)c3)c21 [Example 169, 2-([5-[3-(Cyclopropylmethoxy)phenyl]-1-(1-methyl-1H-indazol-7-yl)-1H-pyrazol-3-yl]-methoxy)-2-methylpropanoic acid]",12.2,68000
"CCOc1cc(OCC)cc(-c2cc(COC(C)(C)C(=O)O)nn2-c2cccc3cnn(C)c23)c1 [Example 171, 2-([5-(3,5-Diethoxyphenyl)-1-(1-methyl-1H-indazol-7-yl)-1H-pyiazol-3-yl]methoxy)-2-methylpropanoic acid]",12,32000
"CCn1ncc2cccc(-n3nc(COC(C)(C)C(=O)O)cc3-c3cccc(OCC(C)(C)C)c3)c21 [Example 172, 2-([5-(3-(2,2-Dimethylpropoxy)phenyl]-1-(1-ethyl-1H-indazol-7-yl)-1H-pyrazol-3-yl]-methoxy)-2-methylpropanoic acid]",0.59,33000
"CC(C)(OCc1cc(-c2cccc(OCC3COC3)c2)n(-c2ccccc2Cl)n1)C(=O)O [Example 173, 2-([1-(2-Chlorophenyl)-5-[3-(oxetan-3-yl-methoxy)phenyl)-1H-pyraz.ol-3-yl]-methoxy)-2-methylpropanoic acid]",230,66000
"Cn1ncc2ccc(-c3cc(COC(C)(C)C(=O)O)nn3-c3ccccc3Cl)cc21 [Example 174, 2-([1-(2-Chlorophenyl)-5-(1-methyl-1H-indazol-6-yl)-1H-pyrazol-3-yl]methoxy)-2-methylpropanoic acid]",101,> 100000
"CC(C)(OCc1cc(-c2cccc(OC3COC3)c2)n(-c2ccccc2Cl)n1)C(=O)O [Example 176, 2-([1-(2-Chlorophenyl)-5-[3-(oxetan-3-yl-oxy)phenyl]-1Hpyrazol-3-yl]methoxy)-2-methylpropanoic acid]",180,> 100000
"CC(C)(OCc1cc(-c2cccc(OC3CC3)c2)n(-c2ccccc2F)n1)C(=O)O [Example 181, 2-([5-(3-cyclopropoxyphenyl)-1-(2-fluorophenyl)-1H-pyrazol-3-yl]methoxy)-2-methylpropanoate]",20,25000
"CC(C)(OCc1cc(-c2cccc(OC3CC3)c2)n(-c2ccccc2Br)n1)C(=O)O [Example 182, 2-([1-(2-Bromophenyl)-5-(3-cyclopropoxy-phenyl)-1H-pyrazol-3-yl]methoxy)-2-methylpropanoic acid]",5.9,12000
"CC(C)(OCc1cc(-c2cccc(OC3CC3)c2)n(-c2ccc(Cl)cc2Cl)n1)C(=O)O [Example 184, 2-([5-(3-Cyclopropoxyphenyl)-1-(2,4-dichlorophenyl)-1H-pyrazol-3-yl]methoxy)-2-methylpropanoic acid]",22,> 33000
"CC(C)(OCc1cc(-c2cccc(OC3CC3)c2)n(-c2cc(Cl)ccc2Cl)n1)C(=O)O [Example 185, 2-([5-(3-Cyclopropoxyphenyl)-1-(2,5-dichlorophenyl)-1H-pyrazol-3-yl]methoxy)-2-methylpropanoic acid]",9.3,17000
"CC(C)(OCc1cc(-c2cccc(OC3CC3)c2)n(-c2ccccc2OC(F)F)n1)C(=O)O [Example 186, 2-([5-(3-Cyclopropoxyphenyl)-1-[2-(difluoromethoxy)phenyl]-1H-pyrazol-3-yl]-methoxy)-2-methylpropanoic acid]",21.5,90000
"CCOc1ccccc1-n1nc(COC(C)(C)C(=O)O)cc1-c1cccc(OC2CC2)c1 [Example 187, 2-([5-(3-cyclopropoxyphenyl)-1-(2-ethoxy-phenyl)-1H-pyrazol-3-yl]methoxy)-2-methylpropanoic acid]",43,63000
